Where two headings read alike, the source gives them in different places.
Key:
HCT116 MTAP null cells = assay: HCT116 MTAP null cell line proliferation (CellTiter-Glo cell viability, 6 days); format: cell-based; details: HCT116 MTAP null cells, 6 days of treatment, CellTiter-Glo cell viability, read-out: HCT-116 MTAP null IC50
Method in brief: (§1)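 Isogenic HCT116 pair (parent and MTAP double-allele knockout) in RPMI 1640 + 10% FBS, exposed 6 days to compound: 8–9-point 1:3 dilutions from 1 or 10 μM top, or 22-point 1:2 dilutions from 10 or 50 μM top. CellTiter-Glo luminescence; IC50 from sigmoidal fit (Hill −1) or 4-parameter logistic.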

HCT116 WT cells = assay: HCT116 WT cell line proliferation (CellTiter-Glo cell viability, 6 days); format: cell-based; details: HCT116 WT (parent) cells, 6 days of treatment, CellTiter-Glo cell viability, read-out: HCT-116 WT IC50
Method in brief: as §1

| SMILES | IC50 (HCT116 MTAP null cells) [nM] | IC50 (HCT116 WT cells) [nM] | IC50 (HCT116 MTAP null cells; HCT116-MTAP null, 144 h) [nM] | IC50 (HCT116 WT cells; Homo sapiens, HCT-116, 144 h) [nM] |
| --- | --- | --- | --- | --- |
| Nc1nc2cnc(C(=O)N3CCCC[C@@H]3c3ccc(C(F)(F)F)cc3)cc2c2c1COC2 (single isomer, unassigned) [Example 485] | – | – | 40 | 1740 |
| CC(C)Oc1ccc([C@@H]2COC[C@H](C)N2C(=O)c2cc3c4c(c(N)nc3cn2)COC4)cn1 (racemic) [Example 306, (4-amino-1,3-dihydrofuro[3,4-c][1,7]naphthyridin-8-yl)((3R,5S)-3-methyl-5-(6-(2-propanyloxy)-3-pyridinyl)-4-morpholinyl)methanone and (4-amino-1,3-dihydrofuro[3,4-c][1,7]naphthyridin-8-yl)((3S,5R)-3-methyl-5-(6-(2-propanyloxy)-3-pyridinyl)-4-morpholinyl)methanone] | – | – | 96 | 2130 |
| Nc1nc2ccc(C(=O)N3CCOCC3c3ccc(F)cc3)cc2c2c1COC2 (racemic) [Example 363, (4-amino-1,3-dihydrofuro[3,4-c]quinolin-8-yl)-[rac-(3S)-3-(4-fluorophenyl)morpholin-4-yl]methanone] | – | – | 1910 | > 10000 |
| Cn1ncc2c3cc(C(=O)N4CCOCC4c4ccc(C(F)(F)F)cn4)ccc3nc(N)c21 (racemic) [Example 499, (4-amino-3-methyl-3H-pyrazolo[3,4-c]quinolin-8-yl)((3R)-3-(5-(trifluoromethyl)-2-pyridinyl)-4-morpholinyl)methanone and (4-amino-3-methyl-3H-pyrazolo[3,4-c]quinolin-8-yl)((3S)-3-(5-(trifluoromethyl)-2-pyridinyl)-4-morpholinyl)methanone] | – | – | 1100 | 36600 |
| Cn1ncc2c(N)nc3cc(F)c(C(=O)N4C[C@@H]5C[C@]5(c5ccc(C(F)(F)F)cc5)C4)cc3c21 (single isomer, unassigned) [Example 620] | – | – | 634 | 4230 |
| COc1ccc([C@H]2COC[C@@H](C)N2C(=O)c2cc3c4c(c(N)nc3cc2F)[C@@H](C)OC4)nn1 [Example 552, ((3R)-4-amino-7-fluoro-3-methyl-1,3-dihydrofuro[3,4-c]quinolin-8-yl)((3S,5R)-3-(6-methoxy-3-pyridazinyl)-5-methyl-4-morpholinyl)methanone] | – | – | 13 | 369 |
| Cn1ncc2c(N)nc3cc(F)c(C(=O)N4CCOC[C@@H]4c4ccc(C(F)(F)F)nn4)cc3c21 [Example 560, (4-amino-7-fluoro-1-methyl-1H-pyrazolo[4,3-c]quinolin-8-yl)((3S)-3-(6-(trifluoromethyl)-3-pyridazinyl)-4-morpholinyl)methanone] | – | – | 42 | 2880 |
| C[C@H]1CN(C(=O)c2ccc3nc(N)c4c(c3c2)COC4)[C@H](c2ccc(OC(F)(F)F)cc2)CO1 (single isomer, unassigned) [Example 586] | – | – | 82 | 2920 |

The remaining lines, values ahead:

| IC50 (HCT116 MTAP null cells) [nM] | IC50 (HCT116 WT cells) [nM] | IC50 (HCT116 MTAP null cells; HCT116-MTAP null, 144 h) [nM] | IC50 (HCT116 WT cells; Homo sapiens, HCT-116, 144 h) [nM] | SMILES |
| --- | --- | --- | --- | --- |
| 56 | 1800 | – | – | CC(C)(C)OC(=O)N1CCN(C(=O)c2cc3c4c(c(N)nc3cn2)COC4)[C@H](c2ccc(C(F)(F)F)cc2)C1 (single isomer, unassigned) [Example 590] |
| – | – | 239 | 7950 | Nc1nc2ccc(C(=O)N3CCOC[C@@H]3c3ncc(Br)cc3F)cc2c2c1COC2 (single isomer, unassigned) [Example 622] |
| – | – | > 1000 | 5320 | Nc1nc2ccc(C(=O)N3CCCC[C@H]3c3ccc(C(F)(F)F)cc3)cc2c2ccsc12 (single isomer, unassigned) [Example 489] |
| 403 | 20900 | – | – | CC1OCc2c1c(N)nc1cnc(C(=O)N3C(C)COCC3c3ccc(OC(F)(F)F)cc3F)cc21 (mixture of isomers) [Example 330, ((3S)-4-amino-3-methyl-1,3-dihydrofuro[3,4-c][1,7]naphthyridin-8-yl)((3R,5S)-3-(2-fluoro-4-(trifluoromethoxy)phenyl)-5-methyl-4-morpholinyl)methanone and ((3S)-4-amino-3-methyl-1,3-dihydrofuro[3,4-c][1,7]naphthyridin-8-yl)((3S,5R)-3-(2-fluoro-4-(trifluoromethoxy)phenyl)-5-methyl-4-morpholinyl)methanone] |

— patent US11845760B2, “PRMT5 inhibitors” (AMGEN INC., priority 2020, dated 2023)
